Values quoted from earlier work in patent US20250275935A1, “COMPOSITIONS AND METHODS FOR TREATING PATIENTS WITH DEMENTIA DUE TO ALZHEIMER'S DISEASE WITH A COMBINATION OF THC AND MELATONIN” (IGC Pharma IP, LLC, priority 2021, published 2025).

Key:
[1] = general statement, no test described
mice = conditions: THC 3 mg/kg bodyweight per day, four weeks
[2] = 4.5 mg/day THC
[3] = system: patient having severe Alzheimer's disease; conditions: 4.9-6.7 mg dronabinol with 10 mg donepezil and 50 mg sertraline daily; decreased from 20

In the case of `C[C@@H]1O[C@@H](OC[C@H]2O[C@@H](Oc3c(-c4ccc(O)c(O)c4)oc4cc(O)cc(O)c4c3=O)[C@H](O)[C@@H](O)[C@@H]2O)[C@H](O)[C@H](O)[C@H]1O` [rutin], the solubility in water [1] is listed as “only poorly soluble in water”.
For `COc1cc(/C=C/C(=O)CC(=O)/C=C/c2ccc(O)c(OC)c2)ccc1O` [curcumin], the solubility in water [1] is listed as “only poorly soluble in water”.
In the case of `CCCCCc1cc(O)c2c(c1)OC(C)(C)[C@@H]1CCC(C)=C[C@@H]21` [THC, Tetrahydrocannabinol], the “cognitive performance (learning and memory)” value (mice; mature (12 months) and old (18 months) mice) is given as “cognitive deficits in learning and memory were erased”, the cognitive performance (mice; young mice (2 month)) is given as “performed worse than the control group of young mice” and the “agitation or reduction from baseline of NPI total score versus placebo” value [2] is given as “No differences were shown”.
For `COc1ccc2[nH]cc(CCNC(C)=O)c2c1` [Melatonin, N-acetyl-5-methoxytryptamine], the solubility in water [1] is given as “typically insoluble in water”.
In the case of `CCCCCc1cc(O)c2c(c1)OC(C)(C)[C@@H]1CCC(C)=C[C@@H]21` [dronabinol], the NPI total score [3] is listed as 15.
